Test results: PubChem BioAssay (NCI)
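Compound exposure: 48 hours, 5 concentrations, 96-well plates. TGI is the concentration that stops growth completely.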

Key:
Experiment in all cases: NCI tumour cell line growth inhibition, 48 h
PC-3 prostate = test system: PC-3 prostate
EKVX NSCLC = test system: EKVX NSCLC
HCT-116 colon = test system: HCT-116 colon
SK-MEL-2 melanoma = test system: SK-MEL-2 melanoma
OVCAR-5 ovarian = test system: OVCAR-5 ovarian
MDA-MB-435 = test system: MDA-MB-435
SNB-19 CNS = test system: SNB-19 CNS
A498 renal = test system: A498 renal
BT-549 breast = test system: BT-549 breast
T-47D breast = test system: T-47D breast
MDA-N = test system: MDA-N
OVCAR-4 ovarian = test system: OVCAR-4 ovarian
NCI-H522 lung = test system: NCI-H522 lung
HCC-2998 colon = test system: HCC-2998 colon
NCI-H460 lung = test system: NCI-H460 lung
LOX IMVI melanoma = test system: LOX IMVI melanoma
RXF 393 renal = test system: RXF 393 renal
DU-145 prostate = test system: DU-145 prostate
MCF7 breast = test system: MCF7 breast
CAKI-1 renal = test system: CAKI-1 renal
TK-10 renal = test system: TK-10 renal
SW-620 colon = test system: SW-620 colon
786-0 renal = test system: 786-0 renal
A549 NSCLC = test system: A549 NSCLC
UACC-257 melanoma = test system: UACC-257 melanoma
M14 melanoma = test system: M14 melanoma
SR leukemia = test system: SR leukemia
HT29 colon = test system: HT29 colon
MDA-MB-231 breast = test system: MDA-MB-231 breast
KM12 colon = test system: KM12 colon
K-562 leukemia = test system: K-562 leukemia
SK-MEL-28 melanoma = test system: SK-MEL-28 melanoma
SK-MEL-5 melanoma = test system: SK-MEL-5 melanoma
OVCAR-3 ovarian = test system: OVCAR-3 ovarian
SF-539 CNS = test system: SF-539 CNS
IGROV1 ovarian = test system: IGROV1 ovarian
SK-OV-3 ovarian = test system: SK-OV-3 ovarian
HL-60(TB) leukemia = test system: HL-60(TB) leukemia
UACC-62 melanoma = test system: UACC-62 melanoma
U251 CNS = test system: U251 CNS
NCI-H23 lung = test system: NCI-H23 lung
SF-268 CNS = test system: SF-268 CNS
ACHN renal = test system: ACHN renal
SF-295 CNS = test system: SF-295 CNS
SN12C renal = test system: SN12C renal
MOLT-4 leukemia = test system: MOLT-4 leukemia
HOP-62 NSCLC = test system: HOP-62 NSCLC
HOP-92 NSCLC = test system: HOP-92 NSCLC
NCI/ADR-RES ovarian = test system: NCI/ADR-RES ovarian
CCRF-CEM leukemia = test system: CCRF-CEM leukemia
OVCAR-8 ovarian = test system: OVCAR-8 ovarian
MALME-3M melanoma = test system: MALME-3M melanoma
SNB-75 CNS = test system: SNB-75 CNS
COLO 205 colon = test system: COLO 205 colon
HCT-15 colon = test system: HCT-15 colon
UO-31 renal = test system: UO-31 renal
HS 578T breast = test system: HS 578T breast
NCI-H226 lung = test system: NCI-H226 lung
RPMI-8226 leukemia = test system: RPMI-8226 leukemia

Measured: TGI

COC(=O)C(=O)c1cc2ccccc2n1S(=O)(=O)c1ccccc1
not listed: HS 578T breast | NCI-H226 lung | RPMI-8226 leukemia
> 100 µM: all other assays above

Nc1nc(NNc2ccccc2F)cc(=O)[nH]1
not listed: SK-MEL-2 melanoma | T-47D breast | NCI-H522 lung | RXF 393 renal | CAKI-1 renal | SK-OV-3 ovarian | UACC-62 melanoma | NCI-H23 lung | SF-268 CNS | HOP-92 NSCLC | SNB-75 CNS
> 100 µM: all other assays above
